Tested on: patients with type 1 or type 2 diabetes mellitus and moderately severe to very severe NPDR
Test: Clinical Study MBCM(b): Phase 3, randomized, double-masked, placebo-controlled study; frequency of sustained moderate visual loss (SMVL)
Assay type: in vivo, humans
Details: 32 mg/d orally, SMVL = ≧15 letters loss in best-corrected ETDRS visual acuity for 6-month period (30 to 36 months)
Text: MBCM(b) is a Phase 3, multicenter, parallel, randomized, double-masked, placebo-controlled study. Language from the MBCM(b) protocol is included below.
Patients with type 1 or type 2 diabetes mellitus and an Early Treatment Diabetic Retinopathy Study (ETDRS) retinopathy level ≧47A and ≦53E in at least one eye will be eligible to participate in the study. Visual acuity (best-corrected) will be assessed using the ETDRS visual acuity protocol. Retinopathy will be assessed using ETDRS 7 standard field 30 degree color stereoscopic fundus photography. The photographs will be independently assessed by the University of Wisconsin Fundus Photograph Reading Center.
Seventy sites have enrolled patients over a 15-month period. Of the 685 patients enrolled, it is expected that approximately 580 patients will complete the study. […]
Patients may be included in the study only if they meet all of the following general criteria and have at least one eye that meets all of the eye-specific criteria: • [1] […] ETDRS retinopathy level ≧47A and ≦53E without previous panretinal photocoagulation as determined using ETDRS 7 standard field 30-degree color stereoscopic fundus photography. • [3] […] Best-corrected visual acuity score of 45 or more letters as measured using the ETDRS visual acuity protocol (ETDRS Study report number 1, Arch. Opthalmol., 103:1796-1806, 1985) in an eye that has level ≧47A and ≦53E retinopathy. […]

CN(C)C[C@@H]1CCn2cc(c3ccccc32)C2=C(C(=O)NC2=O)c2cn(c3ccccc23)CCO1 [RBX, (S)-9-((dimethylamino)methyl)-6,7,10,11-tetrahydro-9H,18H-5,21:12,17-dimethenodibenzo(e,k)pyrrolo(3,4-h)(1,4,13)oxadiazacyclohexadecine-18,20(19H)-dione]
% Of Patients with SMVL, Focal PC (patients with focal photocoagulation): 8.6% | % Of Patients with SMVL, No Focal PC (patients without focal photocoagulation): 2.7%

— patent US20080234351A1, “Combination Methods for Preserving Visual Acuity” (priority 2005, published 2008)
